According to US10577353B2, “5-(n-[6,5]-fused bicyclic aryl tetrahydroisoquinolin-6-yl) pyridin-3-yl acetic acid derivatives as inhibitors of human immunodeficiency virus replication” (priority 2015, dated 2020):

Tested on: recombinant NL-RLuc virus (NL4-3 derived HIV)
Assay: Inhibition of HIV replication (NL-RLuc virus in MT-2 cells, luciferase readout)
Assay type: cell-based
Conditions: Human immunodeficiency virus 1, NL43, MT2, 120 h
Description: Inhibition of HIV Replication:
A recombinant NL-RLuc proviral clone was constructed in which a section of the nef gene from NL4-3 was replaced with the Renilla Luciferase gene. This virus is fully infectious and can undergo multiple cycles of replication in cell culture. In addition, the luciferous reporter provides a simple and easy method for quantitating the extent of virus growth and consequently, the antiviral activity of test compounds. The plasmid pNLRLuc contains the proviral NL-Rluc DNA cloned into pUC 18 at the PvuII site. The NL-RLuc virus was prepared by transfection of 293T cells with the plasmid pNLRLuc. Transfections were performed using the LipofectAMINE PLUS kit from Invitrogen (Carlsbad, Calif.) according to the manufacturer and the virus generated was titered in MT-2 cells. For susceptibility analyses, the titrated virus was used to infect MT-2 cells in the presence of compound, and after 5 days of incubation, cells were processed and quantitated for virus growth by the amount of expressed luciferase. Assay media was RPMI 1640 supplemented with 10% heat inactivated fetal bovine serum (FBS), 100 units/ml penicillin G/100 units/ml streptomycin, 10 mM HEPES buffer pH 7.55 and 2 mM L-glutamine. The results from at least 2 experiments were used to calculate the EC50 values. Luciferase was quantitated using the Dual Luciferase kit from Promega (Madison, Wis.). Susceptibility of viruses to compounds was determined by incubation in the presence of serial dilutions of the compound. The 50% effective concentration (EC50) was calculated by using the exponential form of the median effect equation where (Fa)=1/[1+(ED50/drug conc.)^m] (Johnson V A, Byington R T. Infectivity Assay. In Techniques in HIV Research. ed. Aldovini A, Walker B D. 71-76. New York: Stockton Press. 1990).

Q: `Cc1nc(C)c([C@H](OC(C)(C)C)C(=O)O)c(N2CCC(C)(C)CC2)c1-c1ccc2c(c1)CCN(c1ncnc3cc[nH]c13)C2` [Compound 22, (S)-2-(5-(2-(5H-pyrrolo[3,2-d]pyrimidin-4-yl)-1,2,3,4-tetrahydroisoquinolin-6-yl)-4-(4,4-dimethylpiperidin-1-yl)-2,6-dimethylpyridin-3-yl)-2-(tert-butoxy)acetic acid] was tested. Which EC50 did it give?
A: 286 nM

Q: How did the EC50 turn out when `CNc1nc(N2CCc3cc(-c4c(C)nc(C)c([C@H](OC(C)(C)C)C(=O)O)c4N4CCC(C)(C)CC4)ccc3C2)nc2nc[nH]c12` [Compound 23, (S)-2-(tert-butoxy)-2-(4-(4,4-dimethylpiperidin-1-yl)-2,6-dimethyl-5-(2-(6-(methylamino)-7H-purin-2-yl)-1,2,3,4-tetrahydroisoquinolin-6-yl)pyridin-3-yl)acetic acid] was run?
A: 62 nM

Q: How did the EC50 turn out when `Cc1nc(C)c([C@H](OC(C)(C)C)C(=O)O)c(N2CCC(C)(C)CC2)c1-c1ccc2c(c1)CCN(c1nccc3[nH]cnc13)C2` [Compound 24, (S)-2-(5-(2-(1H-imidazo[4,5-c]pyridin-4-yl)-1,2,3,4-tetrahydroisoquinolin-6-yl)-4-(4,4-dimethylpiperidin-1-yl)-2,6-dimethylpyridin-3-yl)-2-(tert-butoxy)acetic acid] was run?
A: 56 nM

Q: How did the EC50 turn out when `Cc1nc(C)c([C@H](OC(C)(C)C)C(=O)O)c(N2CCC(C)(C)CC2)c1-c1ccc2c(c1)CCN(c1ncc3cc[nH]c3n1)C2` [Compound 25, (S)-2-(5-(2-(7H-pyrrolo[2,3-d]pyrimidin-2-yl)-1,2,3,4-tetrahydroisoquinolin-6-yl)-4-(4,4-dimethylpiperidin-1-yl)-2,6-dimethylpyridin-3-yl)-2-(tert-butoxy)acetic acid] was run?
A: 4 nM

Q: Which EC50 does the source give for `COc1nc(N2CCc3cc(-c4c(C)nc(C)c([C@H](OC(C)(C)C)C(=O)O)c4N4CCC(C)(C)CC4)ccc3C2)c2cc[nH]c2n1` [Compound 27, (S)-2-(tert-butoxy)-2-(4-(4,4-dimethylpiperidin-1-yl)-5-(2-(2-methoxy-7H-pyrrolo[2,3-d]pyrimidin-4-yl)-1,2,3,4-tetrahydroisoquinolin-6-yl)-2,6-dimethylpyridin-3-yl)acetic acid] here?
A: 2 nM

Q: For `Cc1nc(C)c([C@H](OC(C)(C)C)C(=O)O)c(N2CCC(C)(C)CC2)c1-c1ccc2c(c1)CCN(c1ncnc3cc(C(C)(C)C)sc13)C2` [Compound 28, (S)-2-(tert-butoxy)-2-(5-(2-(6-(tert-butyl)thieno[3,2-d]pyrimidin-4-yl)-1,2,3,4-tetrahydroisoquinolin-6-yl)-4-(4,4-dimethylpiperidin-1-yl)-2,6-dimethylpyridin-3-yl)acetic acid], which EC50 is on record?
A: 13 nM
